From patent publication US20250026743A1, “HETEROARYL-LINKED ANALOGS AS MGLU5 NEGATIVE ALLOSTERIC MODULATORS AND METHODS OF MAKING AND USING THE SAME” (Vanderbilt University, priority 2021, published 2025)

Biological target: T1, hmGlu5 (Homo sapiens, UniProt P41594)
T1 construct: expressed in transfected cells; host or cells: HEK 293A
Experiment: mGlu5 Ca2+ flux assay in HEK 293A cells (negative allosteric modulation of glutamate EC80 response)
Type: cell-based
Conditions: for remaining activity at 30 µM: HEK293-A, % Glu max at 30 μM, read-out: hmGlu5 NAM Emin (%); for IC50: HEK 293A cells, Ca2+ flux, glutamate EC80, >10,000 = decrease without plateau, read-out: hmGlu5 NAM IC50
Outline: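 HEK 293A cells stably expressing rat or human mGlu5, Fluo-4 AM loaded; compound added 2.3 min before glutamate EC20, then EC80; Ca2+ fluorescence peak amplitudes (F/F0) normalised to glutamate max. IC50 from 4-parameter logistic fit, 10-point 1:3 curves, top 30 μM; partial NAMs plateau above 10% Glu Max.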

T1 sequence (P41594 21-1212): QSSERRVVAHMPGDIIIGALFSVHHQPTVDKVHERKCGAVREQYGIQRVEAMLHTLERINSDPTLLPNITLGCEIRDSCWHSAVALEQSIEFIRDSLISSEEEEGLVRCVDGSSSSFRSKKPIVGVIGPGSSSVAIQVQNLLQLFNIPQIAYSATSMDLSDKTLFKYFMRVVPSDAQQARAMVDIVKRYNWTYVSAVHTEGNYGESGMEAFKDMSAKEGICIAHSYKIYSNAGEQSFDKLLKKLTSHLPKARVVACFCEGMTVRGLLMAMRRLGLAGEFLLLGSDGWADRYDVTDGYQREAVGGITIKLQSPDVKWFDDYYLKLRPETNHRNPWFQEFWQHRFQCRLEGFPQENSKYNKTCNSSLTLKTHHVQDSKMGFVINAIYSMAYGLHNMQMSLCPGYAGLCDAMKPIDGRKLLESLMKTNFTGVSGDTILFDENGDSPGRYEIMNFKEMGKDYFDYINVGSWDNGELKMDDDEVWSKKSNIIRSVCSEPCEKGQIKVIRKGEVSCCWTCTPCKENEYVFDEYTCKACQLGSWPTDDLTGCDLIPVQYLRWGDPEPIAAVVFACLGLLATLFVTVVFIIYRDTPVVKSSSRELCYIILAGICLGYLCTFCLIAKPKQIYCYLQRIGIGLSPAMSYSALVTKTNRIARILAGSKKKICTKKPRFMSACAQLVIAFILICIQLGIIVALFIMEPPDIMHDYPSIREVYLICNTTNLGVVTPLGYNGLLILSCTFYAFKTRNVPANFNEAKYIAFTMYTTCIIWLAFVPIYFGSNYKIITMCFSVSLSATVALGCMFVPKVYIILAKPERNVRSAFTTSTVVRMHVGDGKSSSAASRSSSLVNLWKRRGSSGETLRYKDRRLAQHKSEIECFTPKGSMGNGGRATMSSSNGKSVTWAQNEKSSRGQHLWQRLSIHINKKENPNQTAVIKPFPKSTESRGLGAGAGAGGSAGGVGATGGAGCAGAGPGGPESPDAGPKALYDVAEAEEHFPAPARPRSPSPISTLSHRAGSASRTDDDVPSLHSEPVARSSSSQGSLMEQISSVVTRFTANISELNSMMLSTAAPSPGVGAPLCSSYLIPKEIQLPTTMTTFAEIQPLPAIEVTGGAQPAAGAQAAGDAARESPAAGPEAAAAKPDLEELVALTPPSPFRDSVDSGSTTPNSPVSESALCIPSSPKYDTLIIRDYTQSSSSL

SMILES | remaining activity at 30 µM [%] | IC50 [nM]
Cc1cc(O[C@@H]2CCOC2)cc(-c2noc(-c3ccccn3)n2)n1 [Compound 113, (R)-3-(6-methyl-4-((tetrahydrofuran-3-yl)oxy)pyridin-2-yl)-5-(pyridin-2-yl)-1,2,4-oxadiazole] | 2 | 46
Cc1ccncc1-c1cc(-c2noc(-c3ccccn3)n2)nc(C)c1F [Compound 19, 3-(5′-fluoro-4,6′-dimethyl-[3,4′-bipyridin]-2′-yl)-5-(pyridin-2-yl)-1,2,4-oxadiazole] | 2 | 233
Fc1ccc(-c2noc(-c3cc(-c4cncc(F)c4)cc(C(F)F)n3)n2)nc1 [Compound 78, 5-(6′-(difluoromethyl)-5-fluoro-[3,4′-bipyridin]-2′-yl)-3-(5-fluoropyridin-2-yl)-1,2,4-oxadiazole] | 2 | 149
CCn1cc(-c2cc(-c3nnc(-c4ccc(F)cn4)o3)nc(C)c2F)cn1 [Compound 75, 2-(4-(1-ethyl-1H-pyrazol-4-yl)-5-fluoro-6-methylpyridin-2-yl)-5-(5-fluoropyridin-2-yl)-1,3,4-oxadiazole] | 2 | 591
Cc1cc(-c2cncc(F)c2)cc(-c2noc(-c3ccc(F)cn3)n2)n1 [Compound 55, 3-(5-fluoro-6′-methyl-[3,4′-bipyridin]-2′-yl)-5-(5-fluoropyridin-2-yl)-1,2,4-oxadiazole] | 2 | 190
Cc1ccncc1-c1cc(-c2noc(-c3ccc(F)cn3)n2)ncc1F [Compound 1, 3-(5′-fluoro-4-methyl-[3,4′-bipyridin]-2′-yl)-5-(5-fluoropyridin-2-yl)-1,2,4-oxadiazole] | 3 | 192
Cc1ccncc1-c1cc(-c2noc(Cc3ccnn3C)n2)nc(C)c1F [Compound 56, 3-(5′-fluoro-4,6′-dimethyl-[3,4′-bipyridin]-2′-yl)-5-((1-methyl-1H-pyrazol-5-yl)methyl)-1,2,4-oxadiazole] | 50 | > 10000
Cc1nc(-c2noc(-c3ccncc3)n2)cc(-c2cncc(F)c2)c1F [Compound 51, 3-(5,5′-difluoro-6′-methyl-[3,4′-bipyridin]-2′-yl)-5-(pyridin-4-yl)-1,2,4-oxadiazole] | 12 | 1070
Cc1cncc(-c2nc(-c3cc(-c4cnccc4C)c(F)c(C)n3)no2)c1 [Compound 87, 3-(5′-fluoro-4,6′-dimethyl-[3,4′-bipyridin]-2′-yl)-5-(5-methylpyridin-3-yl)-1,2,4-oxadiazole] | 13 | 4290
COc1c(-c2cnccc2C)cc(-c2nc(-c3ccc(F)cn3)no2)nc1C [Compound 13, 3-(5-fluoropyridin-2-yl)-5-(5′-methoxy-4,6′-dimethyl-[3,4′-bipyridin]-2′-yl)-1,2,4-oxadiazole] | 2 | 482
COc1c(-c2cncc(F)c2)cc(-c2noc(-c3ccc(F)cn3)n2)nc1C [Compound 11, 3-(5-fluoro-5′-methoxy-6′-methyl-[3,4′-bipyridin]-2′-yl)-5-(5-fluoropyridin-2-yl)-1,2,4-oxadiazole] | 2 | 452
COc1cncc(-c2cc(-c3noc(-c4ccc(F)cn4)n3)nc(C)c2F)c1 [Compound 30, 3-(5′-fluoro-5-methoxy-6′-methyl-[3,4′-bipyridin]-2′-yl)-5-(5-fluoropyridin-2-yl)-1,2,4-oxadiazole] | 3 | 493
Cc1cc(-c2cncc(F)c2)cc(-c2noc(-c3nc(C)cs3)n2)n1 [Compound 72, 3-(5-fluoro-6′-methyl-[3,4′-bipyridin]-2′-yl)-5-(4-methylthiazol-2-yl)-1,2,4-oxadiazole] | 11 | 917
Cc1nc(-c2noc(-c3cccc(F)c3)n2)cc(-c2cncc(F)c2)c1F [Compound 38, 3-(5,5′-difluoro-6′-methyl-[3,4′-bipyridin]-2′-yl)-5-(3-fluorophenyl)-1,2,4-oxadiazole] | 14 | 2410
